We go through three compounds from publication PMC7697888, “Comprehensive Set of Tertiary Complex Structures and Palmitic Acid Binding Provide Molecular Insights into Ligand Design for RXR Isoforms” (International Journal of Molecular Sciences, 2020).

In experiment [1] the target is T1, RXRβ (Homo sapiens, UniProt P28702).
T1 construct: pFA-CMV-hRXRβ-LBD (NR2B2, UniProt entry: P28702-1, aa 294–533); expressed in transfected cells; host or cells: HEK293T
T1 sequence (P28702 294-533): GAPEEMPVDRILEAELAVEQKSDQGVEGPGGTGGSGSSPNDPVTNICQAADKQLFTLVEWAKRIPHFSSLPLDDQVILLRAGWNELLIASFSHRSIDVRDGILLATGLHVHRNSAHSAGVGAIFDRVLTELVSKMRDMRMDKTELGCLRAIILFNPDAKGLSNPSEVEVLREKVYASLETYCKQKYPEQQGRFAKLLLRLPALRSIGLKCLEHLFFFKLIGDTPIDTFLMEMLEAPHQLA
Briefly: Gal4 hybrid reporter gene assay RXRβ. It is filed as cell-based. Conditions: HEK293T; at 100 µM concentrations and above. The protocol: The Gal4 hybrid reporter gene assays for RXRα, RXRβ and RXRγ were performed as described previously using the Gal4-fusion receptor plasmids pFA-CMV-hRXRα-LBD (NR2B1, UniProt entry: P19793, aa 225–462), pFA-CMV-hRXRβ-LBD (NR2B2, UniProt entry: P28702-1, aa 294–533) and pFA-CMV-hRXRγ-LBD (NR2B3, UniProt entry: P48443-1, aa 229–463), which code for the hinge region and LBD of the canonical RXR isoform. pFR-Luc (Stratagene, San Diego, CA, USA) as the reporter plasmid and pRL-SV40 (Promega, Madison, WI, USA) as the internal control were used. HEK293T cells were grown in DMEM high-glucose medium (supplemented with 10% fetal calf serum (FCS), sodium pyruvate (1 mM), penicillin (100 U/mL) and streptomycin (100 μg/mL)) at 37 °C and 5% CO2, and seeded in 96-well plates (3.0 × 10^4 cells/well) on the day before transfection. Right before transfection, medium was changed to Opti-MEM without supplements and cells were transiently transfected using the Lipofectamine LTX reagent (Invitrogen, Carlsbad, CA, USA) according to the manufacturer’s protocol with pFR-Luc (Stratagene), pRL-SV40 (Promega) and the respective pFA-CMV-hRXR-LBD clone. After 5 h of incubation, medium was changed to Opti-MEM (supplemented with penicillin (100 U/mL) and streptomycin (100 μg/mL)) additionally containing 0.1% DMSO and the respective test compounds or 0.1% DMSO alone as the untreated control. After overnight incubation (12–14 h), cells were assayed for luciferase activity using the Dual-Glo luciferase assay system (Promega) according to the manufacturer’s protocol on a Tecan Spark M10 luminometer (Tecan Deutschland GmbH, Crailsheim, Germany). Each sample was tested in at least three biologically independent repeats in duplicates. Data were normalized for transfection efficiency and cell growth by division of firefly luciferase data by Renilla luciferase data and multiplying by 1000 to obtain relative light units (RLUs). Fold activation denotes the mean RLU of test compounds at a respective concentration divided by the mean RLU of untreated control. […]
A general note: A reporter such as luciferase makes a cellular process visible.

For experiment [2], the target named is T2, RXRα LBD (Homo sapiens, UniProt P19793).
T2 construct: peptide to the RXRα LBD (aa 225–462) was studied
T2 sequence (P19793 225-462): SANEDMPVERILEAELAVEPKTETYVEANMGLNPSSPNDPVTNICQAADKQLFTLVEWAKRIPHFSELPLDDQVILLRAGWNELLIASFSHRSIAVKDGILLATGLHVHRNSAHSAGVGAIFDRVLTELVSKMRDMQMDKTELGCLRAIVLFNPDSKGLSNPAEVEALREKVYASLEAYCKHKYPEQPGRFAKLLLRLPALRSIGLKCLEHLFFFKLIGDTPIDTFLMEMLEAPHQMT
Briefly: HTRF-based SRC-1 co-activator recruitment assay. It is filed as biochemical. The conditions noted are these: for EC50: HTRF; for competition with bexarotene in SRC-1 recruitment: titrated in the presence of 0.3 µM bexarotene. The source says:
To examine whether PA can act as a modulator that activates RXRs in solution, we next performed homogenous time-resolved fluorescence resonance energy transfer (HTRF)-based co-regulator recruitment assays using a peptide derived from steroid receptor co-activator 1 (SRC-1) as established previously. In addition to PA, we also tested the RXR modulator potentials of myristic acid (MA; C14:0; C14H28O2; […]) and stearic acid (SA; C18:0; C18H36O2; […]).
Terbium cryptate as streptavidin conjugate (Cisbio Bioassays, Codolet, France) was used as the fluorescence resonance energy transfer (FRET) donor and stably coupled via an N-terminal biotin to the SRC-1-derived peptide (biotin-[…]) (Eurogentec Deutschland GmbH, Cologne, Germany), which contains the co-activator consensus motif, LxxLL. Recombinant RXRα LBD fused to N-terminal superfolder green fluorescent protein (sGFP) served as the FRET acceptor. Coactivator recruitment by the RXRα LBD brings FRET donor and acceptor into close proximity, resulting in a gain in the FRET signal as indicator for binding. […] Fluorescence intensities (FI) at 520 nm (acceptor) and 620 nm (donor reference) after excitation at 340 nm were recorded on a Tecan Spark luminometer equipped with enhanced fluorescence module (Tecan) after 2 h of incubation at room temperature. To obtain dimensionless HTRF, FI520 nm was divided by FI620 nm and multiplied with 10,000. The recruitment of the SRC-1-derived peptide to the RXRα LBD was validated with increasing concentrations of SR11237.
On the technique in general: Time-resolved FRET reads energy transfer from a long-lived donor to a nearby acceptor.

The mark [3] stands for this setting: cell-free, compound alone, read-out: EC50 SRC-1 recruitment to RXRα.
The mark [4] stands for this setting: in the presence of 0.3 µM bexarotene, read-out: EC50 SRC-1 recruitment to RXRα in the presence of 0.3 µM bexarotene.

Like-named read-outs stand apart in the source and are kept apart here.

In the case of `CCCCCCCCCCCCCC(=O)O` [MA, myristic acid], the “RXRβ activation in Gal4 hybrid reporter gene assay” value (from here on “RXRβ activation”) in experiment [1] is listed as “activated”. Besides, the EC50 worked out at 2.9 µM in experiment [2] (EC50 SRC-1 recruitment to RXRα in the presence of 0.3 µM bexarotene, in the presence of 0.3 µM bexarotene) and 3.2 µM in experiment [2] (setting [3]). In addition, the “competition with bexarotene in SRC-1 recruitment” value (from here on “competition with bexarotene”) in experiment [2] was “no competition”.

In the case of `CCCCCCCCCCCCCCCC(=O)O` [PA, palmitic acid], the “RXRβ activation” value in experiment [1] is given as “activated”. In addition, the EC50 in experiment [2] (setting [3]) stood at 6.6 µM; in experiment [2] (setting [4]) it was 3.1 µM. Also, the “competition with bexarotene” value in experiment [2] was “no competition”.

`CCCCCCCCCCCCCCCCCC(=O)O` [SA, stearic acid]: in experiment [1], the “RXRβ activation” value is “activated”. For the same compound, the EC50 in experiment [2] (setting [3]) came out at 19 µM; in experiment [2] (setting [4]) it was 14 µM. Also, the “competition with bexarotene” value in experiment [2] is “no competition”.

For orientation: EC50 means the concentration at which the effect is half-maximal.
